For assay [1], the target named is T1, human GPR119 (Homo sapiens, UniProt Q8TDV5).
T1 sequence (Q8TDV5 1-335): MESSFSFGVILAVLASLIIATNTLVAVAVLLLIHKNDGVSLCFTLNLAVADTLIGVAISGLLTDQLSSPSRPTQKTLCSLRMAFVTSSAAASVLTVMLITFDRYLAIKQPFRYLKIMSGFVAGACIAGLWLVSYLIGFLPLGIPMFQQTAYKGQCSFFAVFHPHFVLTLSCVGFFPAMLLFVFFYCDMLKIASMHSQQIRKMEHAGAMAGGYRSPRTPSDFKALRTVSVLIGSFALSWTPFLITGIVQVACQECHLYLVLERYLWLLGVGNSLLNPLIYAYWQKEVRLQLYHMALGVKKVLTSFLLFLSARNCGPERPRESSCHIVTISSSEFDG
The assay is described as follows: β-Arrestin PathHunter assay (U2OS hGPR119 β-arrestin cells). The format is cell-based. Conditions: for EC50: read-out: Human B-arrestin Functional EC50; for Emax: U2OS, read-out: Intrinsic Activity (Human B-arrestin). The method, boiled down:
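Cells carry ProLink-tagged GPR119 and EA-fused β-arrestin; 5000 cells/well were plated overnight in Opti-MEM with 2% charcoal-dextran serum. Compounds were applied for 90 min at 37 °C in HBSS/20 mM HEPES pH 7.0/0.1% BSA (0.5% DMSO), followed by Galacton Star substrate for 60 min at RT and a luminescence read. EC50 came from a 4-parameter logistic fit.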

For assay [2], the target named is T1, human GPR119. Briefly: cAMP HTRF functional assay (hGPR119 HEK-CRE beta-lactamase cells). The class given is cell-based. Conditions: for Emax: read-out: Intrinsic Activity (Human cAMP). More on the design: host or cells: HEK293-CRE beta-lactamase. In short, it runs like this: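 hGPR119 HEK-CRE cells (5000/well), cultured overnight, then treated 30 min at room temperature with compound plus 400 microM IBMX (0.58% DMSO). cAMP measured by competitive HTRF immunoassay after 60 min lysis/detection, converted to nM via standard curve; EC50 from 4-parameter logistic fit.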

The mark [3] stands for this setting: U2OS hGPR119 β-arrestin cells, 90 min, each line a separate determination.
Where [4] appears, read: HTRF cAMP, 30 min, 400 microM IBMX, each line a separate determination.
The mark [5] stands for this setting: marked **: curve was extrapolated to 100%.
Setting [6] is: curve was extrapolated to 100% to calculate an EC50.
Setting [7] is: percent of maximal activity relative to standard GPR119 agonist at 10 micromolar.

Several values for one entry are separate records, joined by “and”; a condition that tells them apart may be missing. Equal entries are not always repeated. A value given as a limit tells only on which side of the number the result lay.

Regarding `Cc1c(O[C@@H]2[C@@H]3COC[C@H]2CN(C(=O)OC(C)C)C3)ncnc1N1CCc2ncccc21` [Example 29, Isopropyl (9-syn)-9-{[6-(2,3-dihydro-1H-pyrrolo[3,2-b]pyridin-1-yl)-5-methylpyrimidin-4-yl]oxy}-3-oxa-7-azabicyclo[3.3.1]nonane-7-carboxylate], the half-maximal effective concentration (EC50) at human GPR119 [1] (setting [3]) and on human GPR119 [2] (setting [4]) was more than 10 µM in each case.

In the case of `CC(C)OC(=O)N1CCC(Oc2cc(N3CCc4ncccc43)ncn2)CC1` [Example 12, Isopropyl 4-{[6-(2,3-dihydro-1H-pyrrolo[3,2-b]pyridin-1-yl)pyrimidin-4-yl]oxy}piperidine-1-carboxylate], the results for the Emax at human GPR119 [1] (setting [5]), at human GPR119 [2] (setting [5]) and at human GPR119 [2] (setting [7]) were 100%, 100% and 56%, respectively. Further, the half-maximal effective concentration (EC50) on human GPR119 [1] (setting [6]) was 2.57 µM; at human GPR119 [2] (setting [4]), 0.784 µM and 1.14 µM and 1.18 µM and 0.331 µM and 0.792 µM; on human GPR119 [2] (setting [6]), 8.15 µM and 9.62 µM and 8.35 µM and 9.48 µM. Also, the “Intrinsic Activity (Human cAMP)” value was 100** % at human GPR119 [2] (setting [5]); 56.5% (2×) and 53.6% and 44% on human GPR119 [2] (setting [7]).

With `Cc1c(O[C@H]2CCN(C(=O)OC(C)(C)C)C[C@H]2F)ncnc1N1CCc2ncccc21` (racemic) [Example 16, tert-Butyl (3R,4S)-4-{[6-(2,3-dihydro-1H-pyrrolo[3,2-b]pyridin-1-yl)-5-methylpyrimidin-4-yl]oxy}-3-fluoropiperidine-1-carboxylate (racemic)], the EC50 at human GPR119 [1] (setting [3]) was 0.00278 µM; on human GPR119 [2] (setting [4]), 0.00637 µM and 0.015 µM and 0.00929 µM. Further, the figures for the Emax on human GPR119 [1] (setting [7]) and on human GPR119 [2] (setting [7]) were 48.6% and 24.8%, respectively. In addition, the “Intrinsic Activity (Human cAMP)” value at human GPR119 [2] (setting [7]) is 21.8% and 27.7%.

Take `Cc1c(O[C@H]2CCN(C(=O)OC3(C)CC3)C[C@H]2F)ncnc1N1CCc2ncccc21` [Example 17, 1-Methylcyclopropyl (3R,4S)-4-{[6-(2,3-dihydro-1H-pyrrolo[3,2-b]pyridin-1-yl)-5-methylpyrimidin-4-yl]oxy}-3-fluoropiperidine-1-carboxylate]: the EC50 at human GPR119 [1] (setting [3]) was 0.00213 µM and 0.00586 µM and 0.00662 µM and 0.00505 µM and 0.0047 µM; at human GPR119 [2] (setting [4]), 0.019 µM and 0.0285 µM and 0.0137 µM and 0.0148 µM and 0.0169 µM and 0.0194 µM. Further, the “Intrinsic Activity (Human B-arrestin)” value on human GPR119 [1] (setting [7]) is 68.9% and 54.3% and 59.2% and 52.8% and 76.9%. Further, the “Intrinsic Activity (Human cAMP)” value on human GPR119 [2] (setting [7]) was 69.6% and 48.7% and 53.8% and 63.9% and 53.1% and 48.5%.

A word on the EC50: it is the concentration needed to bring the measured effect to its halfway point.

These data come from patent publication US20100285145A1, “GPR 119 MODULATORS” (PFIZER INC, priority 2009, published 2010).
